Source: US10259810B2, “N-sulfonylated pyrazolo[3,4-b]pyridin-6-carboxamides and method of use” (AbbVie S.à.r.l., priority 2015, dated 2019)

Columns and labels:
ΔF508-CFTR [1] = target: T1, ΔF508-CFTR (Homo sapiens, UniProt P13569, DEL508-508); test: CFTR cell surface levels using HRP-tagged ΔF508-CFTR expressing CFBE cells, in the presence of a co-corrector; assay type: cell-based
T1 construct: host or cells: CFBE41o-, doxycycline-inducible
How it was run: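 Chemiluminescent read-out of surface HRP (15 min, dark) after PBS washes. Activity is normalized as 100×(sample−DMSO)/(3 μM co-corrector alone−DMSO).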

ΔF508-CFTR [2] = target: T1, ΔF508-CFTR; test: CFTR cell surface levels using HRP-tagged ΔF508-CFTR expressing CFBE cells, intrinsic corrector capacity; assay type: cell-based; parameters: % Activation: concentration or dose not given beside the values
How it was run: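 Surface ΔF508-CFTR was measured as HRP chemiluminescence from an extracellular-loop-4 tag, expressed as percent activity between DMSO and a […] corrector control.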

[3] = HRP-tagged ΔF508-CFTR CFBE cells, in the presence of 3 μM co-corrector
[4] = HRP-tagged ΔF508-CFTR CFBE cells, in the presence of 3 μM co-corrector, read-out: EC50
[5] = HRP-tagged ΔF508-CFTR expressing CFBE41o- cells, compound alone (intrinsic corrector capacity), 20 hours at 33° C.
[6] = HRP-tagged ΔF508-CFTR expressing CFBE41o- cells, compound alone (intrinsic corrector capacity), 20 hours at 33° C., read-out: EC50

T1 sequence (P13569 with tags, fused parts or gaps DEL508-508): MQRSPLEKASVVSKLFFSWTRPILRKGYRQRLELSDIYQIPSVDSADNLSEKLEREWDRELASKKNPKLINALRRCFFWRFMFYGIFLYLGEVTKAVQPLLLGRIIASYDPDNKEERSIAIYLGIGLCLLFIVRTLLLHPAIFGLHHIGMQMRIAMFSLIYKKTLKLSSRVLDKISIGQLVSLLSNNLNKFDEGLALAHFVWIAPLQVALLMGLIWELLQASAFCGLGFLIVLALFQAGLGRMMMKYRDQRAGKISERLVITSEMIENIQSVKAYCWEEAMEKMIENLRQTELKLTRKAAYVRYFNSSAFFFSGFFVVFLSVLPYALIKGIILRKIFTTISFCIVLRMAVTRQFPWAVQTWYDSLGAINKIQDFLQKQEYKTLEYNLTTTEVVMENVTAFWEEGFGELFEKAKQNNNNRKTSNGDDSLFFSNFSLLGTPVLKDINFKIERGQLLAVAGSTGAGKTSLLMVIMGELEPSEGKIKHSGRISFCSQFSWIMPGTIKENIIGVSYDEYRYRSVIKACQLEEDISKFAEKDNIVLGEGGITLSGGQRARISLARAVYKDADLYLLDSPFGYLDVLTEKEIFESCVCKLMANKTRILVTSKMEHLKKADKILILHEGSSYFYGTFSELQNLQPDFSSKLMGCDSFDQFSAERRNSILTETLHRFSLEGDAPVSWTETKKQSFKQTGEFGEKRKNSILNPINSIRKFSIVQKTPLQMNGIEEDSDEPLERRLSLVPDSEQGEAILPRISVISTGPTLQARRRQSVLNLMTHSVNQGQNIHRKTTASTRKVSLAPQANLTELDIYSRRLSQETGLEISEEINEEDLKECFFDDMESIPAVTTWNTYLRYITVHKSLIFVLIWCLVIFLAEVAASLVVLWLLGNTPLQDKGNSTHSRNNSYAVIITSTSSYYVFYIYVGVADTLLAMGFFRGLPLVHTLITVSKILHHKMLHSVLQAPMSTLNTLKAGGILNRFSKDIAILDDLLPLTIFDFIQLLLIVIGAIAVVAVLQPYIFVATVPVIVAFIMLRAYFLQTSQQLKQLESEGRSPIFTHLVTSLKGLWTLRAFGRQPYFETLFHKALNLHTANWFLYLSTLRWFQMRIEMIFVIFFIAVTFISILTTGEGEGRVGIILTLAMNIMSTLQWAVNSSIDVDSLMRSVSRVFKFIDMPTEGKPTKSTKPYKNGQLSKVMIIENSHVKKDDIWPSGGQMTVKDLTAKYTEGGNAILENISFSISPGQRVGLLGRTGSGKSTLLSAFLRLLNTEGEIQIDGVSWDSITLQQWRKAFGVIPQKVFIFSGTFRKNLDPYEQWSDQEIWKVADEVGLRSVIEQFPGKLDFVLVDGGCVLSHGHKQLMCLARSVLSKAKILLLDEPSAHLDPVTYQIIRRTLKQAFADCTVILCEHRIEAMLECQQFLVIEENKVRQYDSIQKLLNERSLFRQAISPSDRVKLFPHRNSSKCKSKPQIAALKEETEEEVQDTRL

CN(C)CCCOc1cc(C(=O)NS(C)(=O)=O)nc2c1c(C1CCC1)nn2-c1ccccc1 [Compound 303, 3-cyclobutyl-4-[3-(dimethylamino)propoxy]-N-(methanesulfonyl)-1-phenyl-1H-pyrazolo[3,4-b]pyridine-6-carboxamide]
% Activation (ΔF508-CFTR [1]; [3]): 339.95%
EC50 (ΔF508-CFTR [1]; [4]): 834 nM
% Activation (ΔF508-CFTR [2]; [5]): 149.9%
EC50 (ΔF508-CFTR [2]; [6]): 3330 nM

CC(C)c1nn(-c2ccc(F)cc2)c2nc(C(=O)NS(C)(=O)=O)cc(OCC3(C)CC(F)(F)C3)c12 [Compound 306, 4-[(3,3-difluoro-1-methylcyclobutyl)methoxy]-1-(4-fluorophenyl)-N-(methanesulfonyl)-3-(propan-2-yl)-1H-pyrazolo[3,4-b]pyridine-6-carboxamide]
% Activation (ΔF508-CFTR [1]; [3]): 321.1%
EC50 (ΔF508-CFTR [1]; [4]): 82.4 nM
% Activation (ΔF508-CFTR [2]; [5]): 146.7%
EC50 (ΔF508-CFTR [2]; [6]): 158 nM

CC(C)c1nn(-c2ccc(F)cc2)c2nc(C(=O)NS(C)(=O)=O)cc(OCCCN3CCCCC3)c12 [Compound 307, 1-(4-fluorophenyl)-N-(methanesulfonyl)-4-[3-(piperidin-1-yl)propoxy]-3-(propan-2-yl)-1H-pyrazolo[3,4-b]pyridine-6-carboxamide]
% Activation (ΔF508-CFTR [1]; [3]): 299.25%
EC50 (ΔF508-CFTR [1]; [4]): 1280 nM
% Activation (ΔF508-CFTR [2]; [5]): 172.7%
EC50 (ΔF508-CFTR [2]; [6]): 3330 nM

CC(C)c1nn(-c2ccc(F)cc2)c2nc(C(=O)NS(C)(=O)=O)cc(OCCN(C(C)C)C3COC3)c12 [Compound 309, 1-(4-fluorophenyl)-N-(methanesulfonyl)-4-{2-[(oxetan-3-yl)(propan-2-yl)amino]ethoxy}-3-(propan-2-yl)-1H-pyrazolo[3,4-b]pyridine-6-carboxamide]
% Activation (ΔF508-CFTR [1]; [3]): 303.6%
EC50 (ΔF508-CFTR [1]; [4]): 224 nM
% Activation (ΔF508-CFTR [2]; [5]): 149%
EC50 (ΔF508-CFTR [2]; [6]): 444 nM

CC(C)c1nn(-c2ccc(F)cc2)c2nc(C(=O)NS(C)(=O)=O)cc(OCC3COCCN3C(C)C)c12 (stereo not drawn) [Compound 310, 1-(4-fluorophenyl)-N-(methanesulfonyl)-3-(propan-2-yl)-4-{[4-(propan-2-yl)morpholin-3-yl]methoxy}-1H-pyrazolo[3,4-b]pyridine-6-carboxamide]
% Activation (ΔF508-CFTR [1]; [3]): 251.5%
EC50 (ΔF508-CFTR [1]; [4]): 924 nM
% Activation (ΔF508-CFTR [2]; [5]): 66.84%
EC50 (ΔF508-CFTR [2]; [6]): 692 nM

COCCS(=O)(=O)NC(=O)c1cc(OCC2CCOCC2)c2c(C3CCC3)nn(-c3ccccc3)c2n1 [Compound 315, 3-cyclobutyl-N-(2-methoxyethanesulfonyl)-4-[(oxan-4-yl)methoxy]-1-phenyl-1H-pyrazolo[3,4-b]pyridine-6-carboxamide]
% Activation (ΔF508-CFTR [1]; [3]): 315.5%
EC50 (ΔF508-CFTR [1]; [4]): 102 nM
% Activation (ΔF508-CFTR [2]; [5]): 154.87%
EC50 (ΔF508-CFTR [2]; [6]): 218 nM

CC(C)c1nn(-c2ccc(F)cc2)c2nc(C(=O)NS(C)(=O)=O)cc(N3CCC(N(C)C)CC3)c12 [Compound 319, 4-[4-(dimethylamino)piperidin-1-yl]-1-(4-fluorophenyl)-N-(methanesulfonyl)-3-(propan-2-yl)-1H-pyrazolo[3,4-b]pyridine-6-carboxamide]
% Activation (ΔF508-CFTR [1]; [3]): 232%
EC50 (ΔF508-CFTR [1]; [4]): 980 nM
% Activation (ΔF508-CFTR [2]; [5]): 34.315%
EC50 (ΔF508-CFTR [2]; [6]): 298 nM

CS(=O)(=O)NC(=O)c1cc(N2CCC(O)(CC#N)CC2)c2c(C3CCC3)nn(-c3ccccc3)c2n1 [Compound 326, 4-[4-(cyanomethyl)-4-hydroxypiperidin-1-yl]-3-cyclobutyl-N-(methanesulfonyl)-1-phenyl-1H-pyrazolo[3,4-b]pyridine-6-carboxamide]
% Activation (ΔF508-CFTR [1]; [3]): 325.3%
EC50 (ΔF508-CFTR [1]; [4]): 730 nM
% Activation (ΔF508-CFTR [2]; [5]): 167.1%
EC50 (ΔF508-CFTR [2]; [6]): 2380 nM

CC(C)c1nn(-c2cccc(N(C)C)c2)c2nc(C(=O)NS(=O)(=O)CCCN=[N+]=[N-])cc(-c3ccc(N=[N+]=[N-])cc3)c12 [Compound 327, 4-(4-azidophenyl)-N-(3-azidopropane-1-sulfonyl)-1-[3-(dimethylamino)phenyl]-3-(propan-2-yl)-1H-pyrazolo[3,4-b]pyridine-6-carboxamide]
% Activation (ΔF508-CFTR [1]; [3]): 433.9%
EC50 (ΔF508-CFTR [1]; [4]): 99.9 nM
% Activation (ΔF508-CFTR [2]; [5]): 239.4%
EC50 (ΔF508-CFTR [2]; [6]): 145 nM

CS(=O)(=O)NC(=O)c1cc(N2CCN(CC(F)(F)F)CC2)c2c(C3CCC3)nn(-c3ccccc3)c2n1 [Compound 329, 3-cyclobutyl-N-(methanesulfonyl)-1-phenyl-4-[4-(2,2,2-trifluoroethyl)piperazin-1-yl]-1H-pyrazolo[3,4-b]pyridine-6-carboxamide]
% Activation (ΔF508-CFTR [1]; [3]): 318.4%
EC50 (ΔF508-CFTR [1]; [4]): 777 nM
% Activation (ΔF508-CFTR [2]; [5]): 163.85%
EC50 (ΔF508-CFTR [2]; [6]): 158 nM

COCCS(=O)(=O)NC(=O)c1cc(N2CCN(CC(F)(F)F)CC2)c2c(C3CCC3)nn(-c3ccccc3)c2n1 [Compound 330, 3-cyclobutyl-N-(2-methoxyethanesulfonyl)-1-phenyl-4-[4-(2,2,2-trifluoroethyl)piperazin-1-yl]-1H-pyrazolo[3,4-b]pyridine-6-carboxamide]
% Activation (ΔF508-CFTR [1]; [3]): 285.4%
EC50 (ΔF508-CFTR [1]; [4]): 124 nM
% Activation (ΔF508-CFTR [2]; [5]): 133.1%
EC50 (ΔF508-CFTR [2]; [6]): 213 nM

CC(C)c1nn(-c2ccnc(N3CCOCC3)c2)c2nc(C(=O)NS(C)(=O)=O)cc(OCC3CCOCC3)c12 [Compound 336, N-(methanesulfonyl)-1-[2-(morpholin-4-yl)pyridin-4-yl]-4-[(oxan-4-yl)methoxy]-3-(propan-2-yl)-1H-pyrazolo[3,4-b]pyridine-6-carboxamide]
% Activation (ΔF508-CFTR [1]; [3]): 232.42%
EC50 (ΔF508-CFTR [1]; [4]): 282 nM
% Activation (ΔF508-CFTR [2]; [5]): 107.2%
EC50 (ΔF508-CFTR [2]; [6]): 420 nM

CC(C)c1nn(-c2ccc(F)cc2)c2nc(C(=O)NS(C)(=O)=O)cc(N3CCNC(C(F)(F)F)C3)c12 (stereo not drawn) [Compound 339, 1-(4-fluorophenyl)-N-(methanesulfonyl)-3-(propan-2-yl)-4-[3-(trifluoromethyl)piperazin-1-yl]-1H-pyrazolo[3,4-b]pyridine-6-carboxamide]
% Activation (ΔF508-CFTR [1]; [3]): 295.5%
EC50 (ΔF508-CFTR [1]; [4]): 402 nM
% Activation (ΔF508-CFTR [2]; [5]): 142.05%
EC50 (ΔF508-CFTR [2]; [6]): 1400 nM

COCCOCC1(F)CCCN(c2cc(C(=O)NS(C)(=O)=O)nc3c2c(C(C)C)nn3-c2ccc(F)cc2)C1 (stereo not drawn) [Compound 346, 4-{3-fluoro-3-[(2-methoxyethoxy)methyl]piperidin-1-yl}-1-(4-fluorophenyl)-N-(methanesulfonyl)-3-(propan-2-yl)-1H-pyrazolo[3,4-b]pyridine-6-carboxamide]
% Activation (ΔF508-CFTR [1]; [3]): 375.1%
EC50 (ΔF508-CFTR [1]; [4]): 253 nM
% Activation (ΔF508-CFTR [2]; [5]): 195.8%
EC50 (ΔF508-CFTR [2]; [6]): 308 nM

O=C(NS(=O)(=O)CCCN1CCOCC1)c1cc(OCC2CCOCC2)c2c(C3CCC3)nn(-c3ccccc3)c2n1 [Compound 347, 3-cyclobutyl-N-[3-(morpholin-4-yl)propane-1-sulfonyl]-4-[(oxan-4-yl)methoxy]-1-phenyl-1H-pyrazolo[3,4-b]pyridine-6-carboxamide]
EC50 (ΔF508-CFTR [1]): 54.3 nM
% Activation (ΔF508-CFTR [1]; [3]): 301.15%
EC50 (ΔF508-CFTR [2]): 263 nM
% Activation (ΔF508-CFTR [2]; [5]): 131.4%

CS(=O)(=O)NC(=O)c1cc(N2CCC[C@@H](CO)C2)c2c(C3CCC3)nn(-c3ccccc3)c2n1 [Compound 349, 3-cyclobutyl-4-[(3R)-3-(hydroxymethyl)piperidin-1-yl]-N-(methanesulfonyl)-1-phenyl-1H-pyrazolo[3,4-b]pyridine-6-carboxamide]
EC50 (ΔF508-CFTR [1]): 424 nM
% Activation (ΔF508-CFTR [1]; [3]): 327.9%
EC50 (ΔF508-CFTR [2]): 512 nM
% Activation (ΔF508-CFTR [2]; [5]): 161.7%

O=C(NS(=O)(=O)CCCN1CCOCC1)c1cc(N2CCC[C@@H](CO)C2)c2c(C3CCC3)nn(-c3ccccc3)c2n1 [Compound 350, 3-cyclobutyl-4-[(3R)-3-(hydroxymethyl)piperidin-1-yl]-N-[3-(morpholin-4-yl)propane-1-sulfonyl]-1-phenyl-1H-pyrazolo[3,4-b]pyridine-6-carboxamide]
EC50 (ΔF508-CFTR [1]): 287 nM
% Activation (ΔF508-CFTR [1]; [3]): 274.6%
EC50 (ΔF508-CFTR [2]): 357 nM
% Activation (ΔF508-CFTR [2]; [5]): 104.21%

O=C(NS(=O)(=O)N1CCC(N2CCCC2)CC1)c1cc(OCC2CCOCC2)c2c(C3CCC3)nn(-c3ccccc3)c2n1 [Compound 351, 3-cyclobutyl-4-[(oxan-4-yl)methoxy]-1-phenyl-N-[4-(pyrrolidin-1-yl)piperidine-1-sulfonyl]-1H-pyrazolo[3,4-b]pyridine-6-carboxamide]
% Activation (ΔF508-CFTR [1]; [3]): 232.5%
EC50 (ΔF508-CFTR [1]; [4]): 81.1 nM
% Activation (ΔF508-CFTR [2]; [5]): 50.87%
EC50 (ΔF508-CFTR [2]; [6]): 73.5 nM

CN1CCN(C(=O)[C@@H]2CCCN2S(=O)(=O)NC(=O)c2cc(OCC3CCOCC3)c3c(C4CCC4)nn(-c4ccccc4)c3n2)CC1 [Compound 352, 3-cyclobutyl-N-[(2S)-2-(4-methylpiperazine-1-carbonyl)pyrrolidine-1-sulfonyl]-4-[(oxan-4-yl)methoxy]-1-phenyl-1H-pyrazolo[3,4-b]pyridine-6-carboxamide]
% Activation (ΔF508-CFTR [1]; [3]): 158.4%
EC50 (ΔF508-CFTR [1]; [4]): 2780 nM
% Activation (ΔF508-CFTR [2]; [5]): 27.44%
EC50 (ΔF508-CFTR [2]; [6]): 5000 nM

O=C(NS(=O)(=O)N1CCC(N2CCCCC2)CC1)c1cc(OCC2CCOCC2)c2c(C3CCC3)nn(-c3ccccc3)c2n1 [Compound 353, N-([1,4'-bipiperidine]-1'-sulfonyl)-3-cyclobutyl-4-[(oxan-4-yl)methoxy]-1-phenyl-1H-pyrazolo[3,4-b]pyridine-6-carboxamide]
% Activation (ΔF508-CFTR [1]; [3]): 193.45%
EC50 (ΔF508-CFTR [1]; [4]): 346 nM
% Activation (ΔF508-CFTR [2]; [5]): 56.22%
EC50 (ΔF508-CFTR [2]; [6]): 87.9 nM

CCCN(C)S(=O)(=O)NC(=O)c1cc(OCC2CCOCC2)c2c(C3CCC3)nn(-c3ccccc3)c2n1 [Compound 354, 3-cyclobutyl-N-[methyl(propyl)sulfamoyl]-4-[(oxan-4-yl)methoxy]-1-phenyl-1H-pyrazolo[3,4-b]pyridine-6-carboxamide]
% Activation (ΔF508-CFTR [1]; [3]): 351%
EC50 (ΔF508-CFTR [1]; [4]): 232 nM
% Activation (ΔF508-CFTR [2]; [5]): 113.7%
EC50 (ΔF508-CFTR [2]; [6]): 123 nM
